The source of these data is ChEMBL document CHEMBL5053500, “Nitric Oxide Induction in Peritoneal Macrophages by a 1,2,3-Triazole Derivative Improves Its Efficacy upon Leishmania amazonensis In Vitro Infection” (J Med Chem, 2021).

The nature of data set [1]: Inhibition of iNOS expression in BALB/c mouse peritoneal macrophages stimulated with Leishmania amazonensis assessed as decrease in nitrite levels at 200 nM pretreated for 1 hr followed by parasite stimulation and measured after 48 hrs by Griess reagent based assay. Particulars: time 49 hrs. In kind it is functional, Peritoneal macrophage.
For data set [2], the system named is Leishmania amazonensis. Put plainly: Antileishmanial activity against Leishmania amazonensis (MHOM/BR/76/MA-76) intracellular amastigotes infected in BALB/c mouse peritoneal macrophages assessed as percentage of infected cells at 15.52 uM measured after 24 hrs by Giemsa's azur-eosin-methylene blue staining based light microscopy analysis. In kind it is functional, Peritoneal macrophage.

The nature of data set [3]: Upregulation of iNOS mRNA expression in BALB/c mouse peritoneal macrophages stimulated with Leishmania amazonensis at 50 uM measured after 48 hrs by qRT-PCR analysis. In kind it is functional, Peritoneal macrophage. For orientation: In qPCR the cycle at which signal appears reflects the starting amount.
For data set [4], the system named is Leishmania amazonensis. Description: Antileishmanial activity against Leishmania amazonensis (MHOM/BR/76/MA-76) intracellular amastigotes infected in BALB/c mouse peritoneal macrophages assessed as decrease in number of amastigotes per infected cells at 20 to 40 uM incubated for 24 hrs by Giemsa's azur-eosin-methyle blue staining based light microscopy analysis. Conditions: Peritoneal macrophage, dose 20-40 µM. It counts as functional, organism-based.

Data set [5] deals with Peritoneal macrophage. Description: Upregulation of IL-1beta mRNA expression in BALB/c mouse peritoneal macrophages stimulated with Leishmania amazonensis at 50 uM measured after 48 hrs by qRT-PCR analysis. In kind it is functional, tissue-based.
The test system of data set [6] is Leishmania amazonensis. Description: Antileishmanial activity against Leishmania amazonensis (MHOM/BR/76/MA-76) intracellular amastigotes infected in BALB/c mouse peritoneal macrophages assessed as percentage of infected cells at 15.52 uM pretreated with 1400W for 1 hr followed by test compound addition measured after 24 hrs by Giemsa's azur-eosin-methylene blue staining based light microscopy analysis. It counts as functional, Peritoneal macrophage.

In data set [7] the test system is Peritoneal macrophage. Description: Induction of NO production in BALB/C mouse peritoneal macrophages assessed as nitrite levels at 50 uM measured after 48 hrs by Griess reagent based assay (Rvb= 3.22 +/- 0.570 uM). It counts as functional.
Data set [8] is described as follows: Cytotoxicity against human CCD-1072Sk cells assessed as reduction in cell viability at <400 uM measured after 24 hrs by MTT assay. In kind it is cell-based. For orientation: Tetrazolium assays rely on reduction of a dye to a coloured formazan, in cell work by metabolically active cells.
Data set [9] deals with Leishmania amazonensis. Description: Antileishmanial activity against Leishmania amazonensis (MHOM/BR/76/MA-76) intracellular amastigotes infected in BALB/c mouse peritoneal macrophages assessed as number of amastigotes per 100 cells at 15.52 uM pretreated with 1400W for 1 hr followed by test compound addition measured after 24 hrs by Giemsa's azur-eosin-methylene blue staining based light microscopy analysis. It counts as functional, Peritoneal macrophage.

The nature of data set [10]: Inhibition of iNOS expression in BALB/c mouse peritoneal macrophages assessed as decrease in LPS induced nitrite levels at 50 uM pretreated with 1400W for 1 hr followed by LPS stimulation further treated with test compound and measured after 48 hrs by Griess reagent based assay (Rvb= 4.27 +/- 0.432 uM). In kind it is functional, Peritoneal macrophage. A general note: Griess reagent forms a coloured azo dye with nitrite.

The test system of data set [11] is Leishmania amazonensis. Put plainly: Antileishmanial activity against Leishmania amazonensis (MHOM/BR/76/MA-76) intracellular amastigotes infected in BALB/c mouse peritoneal macrophages assessed as number of amastigotes per 100 cells at 15.52 uM measured after 24 hrs by Giemsa's azur-eosin-methylene blue staining based light microscopy analysis. In kind it is functional, Peritoneal macrophage.

The subject of data set [12] is Peritoneal macrophage. Put plainly: Upregulation of IL-12 mRNA expression in BALB/c mouse peritoneal macrophages stimulated with Leishmania amazonensis at 50 uM measured after 48 hrs by qRT-PCR analysis. It counts as functional, tissue-based.
The test system of data set [13] is Leishmania amazonensis. Put plainly: Induction of morphological changes in Leishmania amazonensis (MHOM/BR/76/MA-76) promastigotes assessed as kinetoplast swelling at IC50 incubated for 24 hrs by transmission electron microscopy analysis. It counts as functional, organism-based.
Data set [14] in a line: Selectivity index, ratio of CC50 for cytotoxicity against BALB/c mouse peritoneal macrophages to IC50 for antileishmanial activity against Leishmania amazonensis (MHOM/BR/76/MA-76) promastigotes. It counts as toxicity. Conditions: read-out: Ratio CC50/IC50.
Data set [15] relates to Peritoneal macrophage. Description: Induction of NO production in BALB/C mouse peritoneal macrophages assessed as nitrite levels at 100 uM measured after 48 hrs by Griess reagent based assay (Rvb= 3.22 +/- 0.570 uM). In kind it is functional.
The nature of data set [16]: Inhibition of iNOS expression in BALB/C mouse peritoneal macrophages stimulated with Leishmania amazonensis assessed as decrease in nitrite levels at 50 uM pretreated with 1400W for 1 hr followed by parasite stimulation and measured after 48 hrs by Griess reagent based assay (Rvb= 2.60 +/- -.236 uM). It counts as functional, Peritoneal macrophage.
Data set [17] relates to Peritoneal macrophage. Put plainly: Upregulation of IL-10 mRNA expression in BALB/c mouse peritoneal macrophages stimulated with Leishmania amazonensis at 50 uM measured after 48 hrs by qRT-PCR analysis. In kind it is functional, tissue-based.
The test system of data set [18] is Leishmania amazonensis. Description: Induction of morphological changes in Leishmania amazonensis (MHOM/BR/76/MA-76) promastigotes assessed as lipid inclusions at IC50 incubated for 24 hrs by transmission electron microscopy analysis. It counts as functional, organism-based.
Data set [19] concerns Peritoneal macrophage. Description: Upregulation of IL-6 mRNA expression in BALB/c mouse peritoneal macrophages stimulated with Leishmania amazonensis at 50 uM measured after 48 hrs by qRT-PCR analysis. In kind it is functional, tissue-based.
A short description of data set [20]: Selectivity index, ratio of CC50 for cytotoxicity against BALB/c mouse peritoneal macrophage to IC50 for antileishmanial activity against Leishmania amazonensis (MHOM/BR/76/MA-76) intracellular amastigotes infected in BALB/c mouse peritoneal macrophages. In kind it is toxicity, cell-based. Conditions: read-out: Ratio CC50/IC50.
The subject of data set [21] is Leishmania amazonensis. Put plainly: Induction of morphological changes in Leishmania amazonensis (MHOM/BR/76/MA-76) promastigotes assessed as formation of membrane profiles near the flagellar pocket at IC50 incubated for 24 hrs by transmission electron microscopy analysis. In kind it is functional, organism-based.
Data set [22] deals with Peritoneal macrophage. Put plainly: Cytotoxicity against BALB/C mouse peritoneal macrophages assessed as reduction in cell viability at 100 uM measured after 24 hrs by MTT assay relative to control. It counts as cell-based.
Data set [23] deals with Leishmania amazonensis. Put plainly: Antileishmanial activity against Leishmania amazonensis (MHOM/BR/76/MA-76) intracellular amastigotes infected in BALB/c mouse peritoneal macrophages assessed as upward shift in concentration response curves of parasite viability incubated for 24 hrs by Giemsa's azur-eosin-methyle blue staining based light microscopy analysis. In kind it is functional, organism-based. Particulars: Peritoneal macrophage.

Data set [24] deals with Leishmania amazonensis. Put plainly: Antileishmanial activity against Leishmania amazonensis (MHOM/BR/76/MA-76) intracellular amastigotes infected in BALB/c mouse peritoneal macrophages assessed as number of amastigotes per cell at 15.52 uM measured after 24 hrs by Giemsa's azur-eosin-methylene blue staining based light microscopy analysis. It counts as functional, Peritoneal macrophage.

Data set [25] is described as follows: Cytotoxicity against BALB/c mouse peritoneal macrophages assessed as reduction in cell viability incubated for 24 hrs by MTT assay. In kind it is cell-based, Peritoneal macrophage.
Data set [26] concerns Peritoneal macrophage. Description: Upregulation of TNF-alpha mRNA expression in BALB/c mouse peritoneal macrophages stimulated with Leishmania amazonensis at 50 uM measured after 48 hrs by qRT-PCR analysis. In kind it is functional, tissue-based.
Data set [27] relates to Leishmania amazonensis. Description: Antileishmanial activity against Leishmania amazonensis (MHOM/BR/76/MA-76) intracellular amastigotes infected in BALB/c mouse peritoneal macrophages assessed as reduction in parasite growth incubated for 24 hrs by Giemsa's azur-eosin-methyle blue staining based light microscopy analysis. Conditions: MHOM/BR/76/MA-76, Peritoneal macrophage. It counts as functional, organism-based.

The subject of data set [28] is Leishmania amazonensis. Description: Antileishmanial activity against Leishmania amazonensis (MHOM/BR/76/MA-76) promastigotes assessed as upward shift in concentration response curves of parasite viability incubated for 24 hrs by MTT assay. It counts as functional, organism-based.
The subject of data set [29] is Peritoneal macrophage. Put plainly: Induction of NO production in BALB/C mouse peritoneal macrophages infected with Leishmania amazonensis assessed as nitrite levels at 50 uM measured after 48 hrs by Griess reagent based assay (Rvb= 4.11 +/- 0.156 uM). It counts as functional.
For data set [30], the system named is Leishmania amazonensis. Description: Antileishmanial activity against Leishmania amazonensis (MHOM/BR/76/MA-76) intracellular amastigotes infected in BALB/c mouse peritoneal macrophages assessed as decrease in number of amastigotes per 100 cells at 10 to 40 uM incubated for 24 hrs by Giemsa's azur-eosin-methyle blue staining based light microscopy analysis. In kind it is functional, organism-based. Particulars: Peritoneal macrophage, dose 10-40 µM.

The test system of data set [31] is Leishmania amazonensis. Put plainly: Antileishmanial activity against Leishmania amazonensis (MHOM/BR/76/MA-76) promastigotes assessed as reduction in parasite growth incubated for 24 hrs by MTT assay. It counts as functional, organism-based. Particulars: MHOM/BR/76/MA-76, 24 h.
Data set [32] has as its system Leishmania amazonensis. Put plainly: Antileishmanial activity against Leishmania amazonensis (MHOM/BR/76/MA-76) intracellular amastigotes infected in BALB/c mouse peritoneal macrophages assessed as number of amastigotes per cell at 15.52 uM pretreated with 1400W for 1 hr followed by test compound addition measured after 24 hrs by Giemsa's azur-eosin-methylene blue staining based light microscopy analysis. It counts as functional, Peritoneal macrophage.

For data set [33], the system named is Leishmania amazonensis. Put plainly: Induction of morphological changes in Leishmania amazonensis (MHOM/BR/76/MA-76) promastigotes assessed as formation of small vesicles surrounded by a membrane in cytoplasm at IC50 incubated for 24 hrs by transmission electron microscopy analysis. It counts as functional, organism-based.
Data set [34] is described as follows: Selectivity ratio of IC50 for antileishmanial activity against Leishmania amazonensis (MHOM/BR/76/MA-76) promastigotes to IC50 for antileishmanial activity against Leishmania amazonensis (MHOM/BR/76/MA-76) intracellular amastigotes infected in BALB/c mouse peritoneal macrophages. In kind it is functional.
In data set [35] the test system is Leishmania amazonensis. Description: Antileishmanial activity against Leishmania amazonensis (MHOM/BR/76/MA-76) intracellular amastigotes infected in BALB/c mouse peritoneal macrophages assessed as low amastigote mean at 5 to 40 uM incubated for 24 hrs by Giemsa's azur-eosin-methyle blue staining based light microscopy analysis. It counts as functional, organism-based. Particulars: Peritoneal macrophage, dose 5-40 µM.

Data set [36] in a line: Upregulation of iNOS mRNA expression in BALB/c mouse peritoneal macrophages at 50 uM measured after 48 hrs by qRT-PCR analysis relative to control. It counts as functional, Peritoneal macrophage.

For orientation: CC50 means the concentration that lowers cell viability or growth by half. The term IC50 denotes the concentration that inhibits the measured activity by half.

Active and inactive are the calls of the source. The calls are words filed in the database; no cut-off is given here.

For `CC(=N)NCc1cccc(CN)c1.Cl.Cl`, the Activity in [1] was found to be 2.06 µM.
Regarding `OC(c1ccc(Br)cc1)c1cn(-c2ccc(Br)cc2)nn1` (stereo unspecified), the Activity in [2] is 55.6; in data set [6] it was 79.6; in [7], 4.63 µM; in data set [8], “Non-Toxic”; in data set [9], 288.25; in data set [10], 2.65 µM. Also, the Activity worked out at 169.38 in data set [11]; 4.34 µM in [15]; 3.06 µM in [16]; 65.79% in [22]; 2.86 in [24]; 9.37 µM in data set [29]. In addition, the Activity in data set [32] turned out to be 3.68. Moreover, the results for the “fold change (FC)” value in [3] and in data set [36] were 24.47 and 12.28, respectively. In addition, the result in [4], in data set [5], in data set [13], in data set [18], in data set [21] and in [23] was Active. In addition, the result in data set [26], in data set [28], in data set [30], in data set [33] and in [35] was Active. Moreover, the outcome in data set [12], in data set [17] and in data set [19] was inactive. For the same compound, the selectivity ratio was determined as 5.41 in data set [14] and 20.5 in data set [20]. Also, in data set [25], the CC50 at 24 h amounted to 84 µM. Besides, the IC50 came to 4.1 µM in data set [27] and 15.5 µM in data set [31]. For the same compound, the “Ratio IC50” value in data set [34] was 3.7.
